{"source": "patent US10948221B1", "about": "(priority 2020, dated 2021)", "origin": "cited, not measured here"}
{"tested_on": "rat", "settings": "in vivo"}
{"compound": "[K+].[O-][Cl+3]([O-])([O-])[O-]", "note": "[KClO4]", "LD50 (oral-rat; mg/kg)": "100 mg/kg"}
{"compound": "[F-].[Na+]", "note": "[NaF]", "LD50 (oral-rat; mg/kg)": "52 mg/kg"}
{"compound": "BaCl2•2H2O", "LD50 (oral-rat; mg/kg)": "118 mg/kg"}
{"compound": "O=N[O-].[Na+]", "note": "[NaNO2]", "LD50 (oral-rat; mg/kg)": "180 mg/kg"}
{"compound": "NH4NO3", "LD50 (oral-rat; mg/kg)": "2217 mg/kg"}
{"compound": "[Na+].[O-][Cl+2]([O-])[O-]", "note": "[NaClO3]", "LD50 (oral-rat; mg/kg)": "1200 mg/kg"}
{"compound": "[K+].[O-][Cl+2]([O-])[O-]", "note": "[KClO3]", "LD50 (oral-rat; mg/kg)": "1870 mg/kg"}
{"compound": "K2SO4 [Solute K2SO4]", "LD50 (oral-rat; mg/kg)": "6600 mg/kg"}
{"compound": "Na3PO4", "LD50 (oral-rat; mg/kg)": "7400 mg/kg"}
{"compound": "AgNO3", "LD50 (oral-rat; mg/kg)": "Toxic"}
{"compound": "N#C[O-].[K+]", "note": "[KCNO]", "LD50 (oral-rat; mg/kg)": "841 mg/kg"}
{"compound": "KMnO4", "LD50 (oral-rat; mg/kg)": "1090 mg/kg"}
{"compound": "KIO3", "LD50 (oral-rat; mg/kg)": "136 mg/kg"}
{"compound": "O=N[O-].[Ag+]", "note": "[AgNO2]", "LD50 (oral-rat; mg/kg)": "Toxic"}
{"compound": "CN.Cl", "note": "[CH3NH3Cl]", "LD50 (oral-rat; mg/kg)": "1600 mg/kg"}
{"compound": "[Na+].[O-][Cl+3]([O-])([O-])[O-]", "note": "[NaClO4]", "LD50 (oral-rat; mg/kg)": "2100 mg/kg"}
{"compound": "O=N[O-].[K+]", "note": "[KNO2]", "LD50 (oral-rat; mg/kg)": "250 mg/kg"}
{"compound": "MgSO4•7H2O", "LD50 (oral-rat; mg/kg)": "2840 mg/kg"}
